The source of these data is US10618937B2, “Method of treating Alzheimer's disease” (INDUSTRY-ACADEMIC COOPERATION FOUNDATION GYEONGSANG …, priority 2016, dated 2020).

This assay concerns APP/PS1 model group. Put plainly: In vivo electrophysiology and LTP analysis (hippocampus slice). On the set-up: species or system mice. As to conditions: hippocampus slice CA1, after pairing stimuli, treated APP/PS1 model group. The protocol:
A hippocampus slice was prepared from adult mice to examine the CA1 circuit from the cross-sectional schaffer collateral (SC) input in the hippocampus slice ([…] thickness). Briefly, after anesthetizing the mice with isoflurane, the brains were quickly cooled by transcardiac perfusion with ice-cold cross-cerebrospinal fluid (CSF). After the brain was removed, the brains were stored in ice-cold sucrose-artificial CSF. A coronal section was cultured in artificial CSF at a temperature of 35° C. for 30 minutes, and cultured in artificial CSF at room temperature (23° C. to 25° C.) for 1 to 4 hours before being transferred to the recording chamber. […]
LTP experiments were performed at 27° C. to 29° C. […] Stimulation was applied to the shaper-side branch (SC) pathway using a concentrated bipolar electrode located at […] from the soma of the recorded cells. […] In the LTP experiment, baseline EPSCs were measured for 3 min before applying the pairing stimuli (2 Hz, 2-minute stimulation, and post-synaptic depolarization to 0 mV). […]

“RGPCG (adiponectin receptor-activating peptide) [5AA1]”: the “level of EPSC enhancement (LTP)” value is listed as “almost the same as that of the normal group”.
